Assay results as given in patent US10206394B2, “Herbicidal compounds” (Syngenta Participations AG, priority 2014, dated 2019).
Like-named read-outs stand apart in the source and are kept apart here.

Tests used:
Test in all cases: Glasshouse assay for herbicidal activity (pre- and post-emergence), percentage phytotoxicity
Format in all cases: in vivo
Avena fatua (AVEFA) = details: Avena fatua
Procedure: (§1) Test—Glasshouse Assay for Herbicidal Activity
(§2) Seeds of a variety of monocotyledonous and dicotyledonous test plants are sown in standard soil in pots. The plants are cultivated for one day (for pre-emergence (PRE)) or for about 12 days (for post-emergence (POST)) under controlled conditions in a glasshouse (warm climate species at 24/18° C., cool climate species at 20/16° C., both at day/night; 16 hours light; 65% humidity).
(§3) The test plants are then grown on, in a glasshouse (greenhouse) under controlled conditions (warm climate species at 24/18° C., cool climate species at 20/16° C., both at day/night; 16 hours light; 65% humidity) and are watered twice daily. 15 days after application of the test herbicide (15 DAA) (for post-emergence), and 20 days after application of the test herbicide (20 DAA) (for pre-emergence), the test plants are evaluated visually, and an assessed percentage phytotoxicity score is given for each herbicidal application on each plant species (with 100%=total damage to plant; 0%=no damage to plant).
(§4) The plant species tested are as follows: Alopecurus myosuroides (ALOMY), Avena fatua (AVEFA), Lolium perenne (LOLPE), Echinochloa crus-galli (ECHCG).

[1] = tested on: Alopecurus myosuroides (ALOMY); details: for pest or weed control at 250 g/ha: Alopecurus myosuroides
Procedure: as §1, §2, §3, §4

[2] = tested on: Echinochloa crus-galli (ECHCG); details: Echinochloa crus-galli
Procedure: as §1, §2, §3, §4

Lolium perenne (LOLPE) = details: Lolium perenne
Procedure: as §1, §2, §3, §4

[3] = post-emergence, 360 h, 250 g/ha, post-emergence, 15 DAA, visual assessment (100%=total damage, 0%=no damage), read-out: Post-emergence herbicidal activity (percentage phytotoxicity) AVEFA POST
[4] = pre-emergence, 480 h, 250 g/ha, pre-emergence, 20 DAA, visual assessment (100%=total damage, 0%=no damage), read-out: Pre-emergence herbicidal activity (percentage phytotoxicity) AVEFA PRE
[5] = post-emergence, 360 h, 250 g/ha, post-emergence, 15 DAA, visual assessment (100%=total damage, 0%=no damage), read-out: Post-emergence herbicidal activity (percentage phytotoxicity) ALOMY POST
[6] = pre-emergence, 480 h, 250 g/ha, pre-emergence, 20 DAA, visual assessment (100%=total damage, 0%=no damage), read-out: Pre-emergence herbicidal activity (percentage phytotoxicity) ALOMY PRE
[7] = post-emergence, 360 h, 250 g/ha, post-emergence, 15 DAA, visual assessment (100%=total damage, 0%=no damage), read-out: Post-emergence herbicidal activity (percentage phytotoxicity) ECHCG POST
[8] = pre-emergence, 480 h, 250 g/ha, pre-emergence, 20 DAA, visual assessment (100%=total damage, 0%=no damage), read-out: Pre-emergence herbicidal activity (percentage phytotoxicity) ECHCG PRE
[9] = post-emergence, 360 h, 250 g/ha, post-emergence, 15 DAA, visual assessment (100%=total damage, 0%=no damage), read-out: Post-emergence herbicidal activity (percentage phytotoxicity) LOLPE POST
[10] = pre-emergence, 480 h, 250 g/ha, pre-emergence, 20 DAA, visual assessment (100%=total damage, 0%=no damage), read-out: Pre-emergence herbicidal activity (percentage phytotoxicity) LOLPE PRE
[11] = post-emergence, 360 h, POST-emergence, rate 250 g/ha, visual score 15 DAA (100%=total damage, 0%=no damage), read-out: Post-emergence herbicidal activity (percentage phytotoxicity) AVEFA POST
[12] = pre-emergence, 480 h, PRE-emergence, rate 250 g/ha, visual score 20 DAA (100%=total damage, 0%=no damage), read-out: Pre-emergence herbicidal activity (percentage phytotoxicity) AVEFA PRE
[13] = post-emergence, 360 h, POST-emergence, rate 250 g/ha, visual score 15 DAA (100%=total damage, 0%=no damage), read-out: Post-emergence herbicidal activity (percentage phytotoxicity) ALOMY POST
[14] = pre-emergence, 480 h, PRE-emergence, rate 250 g/ha, visual score 20 DAA (100%=total damage, 0%=no damage), read-out: Pre-emergence herbicidal activity (percentage phytotoxicity) ALOMY PRE
[15] = post-emergence, 360 h, POST-emergence, rate 250 g/ha, visual score 15 DAA (100%=total damage, 0%=no damage), read-out: Post-emergence herbicidal activity (percentage phytotoxicity) ECHCG POST
[16] = pre-emergence, 480 h, PRE-emergence, rate 250 g/ha, visual score 20 DAA (100%=total damage, 0%=no damage), read-out: Pre-emergence herbicidal activity (percentage phytotoxicity) ECHCG PRE
[17] = post-emergence, 360 h, POST-emergence, rate 250 g/ha, visual score 15 DAA (100%=total damage, 0%=no damage), read-out: Post-emergence herbicidal activity (percentage phytotoxicity) LOLPE POST
[18] = pre-emergence, 480 h, PRE-emergence, rate 250 g/ha, visual score 20 DAA (100%=total damage, 0%=no damage), read-out: Pre-emergence herbicidal activity (percentage phytotoxicity) LOLPE PRE
[19] = post-emergence, 360 h, Rate 250 g/ha, post-emergence, assessed visually 15 DAA, 100%=total damage, 0%=no damage, read-out: Post-emergence herbicidal activity (percentage phytotoxicity) AVEFA POST
[20] = pre-emergence, 480 h, Rate 250 g/ha, pre-emergence, assessed visually 20 DAA, 100%=total damage, 0%=no damage, read-out: Pre-emergence herbicidal activity (percentage phytotoxicity) AVEFA PRE
[21] = post-emergence, 360 h, Rate 250 g/ha, post-emergence, assessed visually 15 DAA, 100%=total damage, 0%=no damage, read-out: Post-emergence herbicidal activity (percentage phytotoxicity) ALOMY POST
[22] = pre-emergence, 480 h, Rate 250 g/ha, pre-emergence, assessed visually 20 DAA, 100%=total damage, 0%=no damage, read-out: Pre-emergence herbicidal activity (percentage phytotoxicity) ALOMY PRE
[23] = post-emergence, 360 h, Rate 250 g/ha, post-emergence, assessed visually 15 DAA, 100%=total damage, 0%=no damage, read-out: Post-emergence herbicidal activity (percentage phytotoxicity) ECHCG POST
[24] = pre-emergence, 480 h, Rate 250 g/ha, pre-emergence, assessed visually 20 DAA, 100%=total damage, 0%=no damage, read-out: Pre-emergence herbicidal activity (percentage phytotoxicity) ECHCG PRE
[25] = post-emergence, 360 h, Rate 250 g/ha, post-emergence, assessed visually 15 DAA, 100%=total damage, 0%=no damage, read-out: Post-emergence herbicidal activity (percentage phytotoxicity) LOLPE POST
[26] = pre-emergence, 480 h, Rate 250 g/ha, pre-emergence, assessed visually 20 DAA, 100%=total damage, 0%=no damage, read-out: Pre-emergence herbicidal activity (percentage phytotoxicity) LOLPE PRE

SMILES	pest or weed control at 250 g/ha (Avena fatua (AVEFA); [3])	pest or weed control at 250 g/ha (Avena fatua (AVEFA); [4])	pest or weed control at 250 g/ha [1, 5]	pest or weed control at 250 g/ha [1, 6]	pest or weed control at 250 g/ha [2, 7]	pest or weed control at 250 g/ha [2, 8]	pest or weed control at 250 g/ha (Lolium perenne (LOLPE); [9])	pest or weed control at 250 g/ha (Lolium perenne (LOLPE); [10])	pest or weed control at 250 g/ha (Avena fatua (AVEFA); [19])	pest or weed control at 250 g/ha (Avena fatua (AVEFA); [20])	pest or weed control at 250 g/ha [1, 21]	pest or weed control at 250 g/ha [2, 23]	pest or weed control at 250 g/ha [2, 24]	pest or weed control at 250 g/ha (Lolium perenne (LOLPE); [25])	pest or weed control at 250 g/ha (Lolium perenne (LOLPE); [26])	further results
Cc1cc(C)c(C2C(=O)CC(CC(=O)Nc3ccc(C#N)cc3)C2=O)c(C)c1 (centres unmarked) [Compound B1]	0%	0%	0%	20%	60%	70%	20%	20%								
CCc1cccc(C)c1C1C(=O)CC(CC(=O)N2CCOCC2)C1=O (centres unmarked) [Compound B148]	100%	70%	90%	70%	100%	100%	90%	80%								
C=C(Br)CNC(=O)CC1CC(=O)C(c2c(C)cc(C)cc2C)C1=O (centres unmarked) [Compound B102]	60%	0%	60%	60%	60%	80%	90%	100%								
COCC(C)(C)NC(=O)CC1CC(=O)C(c2c(C)cc(-c3ncc(Cl)cc3F)cc2C)C1=O (centres unmarked) [Compound B325]																pest or weed control at 250 g/ha (Avena fatua (AVEFA); [11]): 100%; pest or weed control at 250 g/ha (Avena fatua (AVEFA); [12]): 70%; pest or weed control at 250 g/ha [1, 13]: 100%; pest or weed control at 250 g/ha [1, 14]: 100%; pest or weed control at 250 g/ha [2, 15]: 100%; pest or weed control at 250 g/ha [2, 16]: 100%; pest or weed control at 250 g/ha (Lolium perenne (LOLPE); [17]): 100%; pest or weed control at 250 g/ha (Lolium perenne (LOLPE); [18]): 100%
Cc1cc(C)c(C2C(=O)CC(CC(=O)NCc3nc4ccccc4s3)C2=O)c(C)c1 (centres unmarked) [Compound A100]									0%	0%	70%	20%	20%	70%	80%	pest or weed control at 250 g/ha [1, 22]: 90%
Cc1cc(C)c(C2C(=O)CC(CC(=O)Nc3ccc(F)cc3F)C2=O)c(C)c1 (centres unmarked) [Compound B3]	10%	50%	0%	60%	70%	90%	80%	90%								
COCCCNC(=O)CC1CC(=O)C(c2c(C)cc(-c3ncc(F)cn3)cc2C)C1=O (centres unmarked) [Compound B106]	100%	70%	100%	80%	100%	100%	100%	90%								
Cc1cc(-c2cnc(Cl)cn2)cc(C)c1C1C(=O)CC(CC(=O)NCc2cccc(C(F)(F)F)c2)C1=O (centres unmarked) [Compound A133]									100%	90%	90%	100%	90%	80%	80%	Pre-emergence herbicidal activity (percentage phytotoxicity) ALOMY PRE ([1]; Rate 250 g/ha, pre-emergence, assessed visually 20 DAA, 100%=total damage, 0%=no damage): 30%
Cc1cc(-c2ncc(F)cn2)cc(C)c1C1C(=O)CC(CC(=O)NCc2cccs2)C1=O (centres unmarked) [Compound A141]									100%	90%	90%	100%	100%	90%	100%	pest or weed control at 250 g/ha [1, 22]: 90%
Cc1cc(-c2ncc(F)cn2)cc(C)c1C1C(=O)CC(CC(=O)NC(C)C)C1=O (centres unmarked) [Compound B275]																pest or weed control at 250 g/ha (Avena fatua (AVEFA); [11]): 100%; pest or weed control at 250 g/ha (Avena fatua (AVEFA); [12]): 100%; pest or weed control at 250 g/ha [1, 13]: 100%; pest or weed control at 250 g/ha [1, 14]: 100%; pest or weed control at 250 g/ha [2, 15]: 100%; pest or weed control at 250 g/ha [2, 16]: 100%; pest or weed control at 250 g/ha (Lolium perenne (LOLPE); [17]): 100%; pest or weed control at 250 g/ha (Lolium perenne (LOLPE); [18]): 100%
